{"source": "patent US11970493B2", "about": "“Autotaxin inhibitor compounds” (ILDONG PHARMACEUTICAL CO., LTD., priority 2020, dated 2024)", "target": "hATX/ENPP2 (Homo sapiens, UniProt Q13822)", "test": "hATX/ENPP2 biochemical assay using 16:0-LPC as substrate (Amplex Red/choline oxidase/HRP fluorescence)", "conditions": "hENPP2 2.5 nM, LPC (16:0) substrate", "method": "The enzyme is diluted in 50 mM Tris-HCl pH 8.0, 140 mM NaCl, 5 mM CaCl2, 0.01% Triton X-100 in a total volume of 5 μL. The aqueous solution of enzyme is added to the wells and incubated with different concentrations of the compounds at room temperature for 15 min. The reaction is started by the addition of 5 μL of 80 μM LPC (16:0) and 10 μL of the detection mixture containing 200 μM Amplex Red, 10 U/mL choline oxidase and 4 U/mL HRP. Fluorescence at 590 nm was measured kinetically with excitation at 530 nm. The slope of the curve (from 60 to 70 min of the reaction time) was used to calculate the compounds' IC50 values.", "data": [{"compound": "CCc1nc2ccc(-c3cnc(NC4CCN(C(=O)C5(O)CC5)CC4)nc3)cn2c1N(C)c1nc(-c2ccc(F)cc2)c(C#N)s1", "note": "[Compound 21, 2-((2-ethyl-6-(2-((1-(1-hydroxycyclopropane-1-carbonyl)piperidin-4-yl)amino)pyrimidin-5-yl)imidazo[1,2-a]pyridin-3-yl)(methyl)amino)-4-(4-fluorophenyl) thiazole-5-carbonitrile]", "values": [{"measurement": "IC50", "value": "20 to 200", "unit": "nM"}]}, {"compound": "CCc1nc2ccc(-c3cnc(NC4CCNCC4)nc3)cn2c1N(C)c1nc(-c2ccc(F)cc2)c(C#N)s1", "note": "[Compound 22, 2-((2-ethyl-6-(2-(piperidin-4-ylamino)pyrimidin-5-yl)imidazo[1,2-a]pyridin-3-yl)(methyl)amino)-4-(4-fluorophenyl)thiazole-5-carbonitrile]", "values": [{"measurement": "IC50", "value": "> 200", "unit": "nM"}]}, {"compound": "CCc1nc2ccc(-c3cnc(N4CC(NC(=O)[C@H]5C[C@H](O)CN5)C4)nc3)cn2c1N(C)c1nc(-c2ccc(F)cc2)c(C#N)s1", "note": "[Compound 23, (2R,4S)—N-(1-(5-(3-((5-cyano-4-(4-fluorophenyl)thiazol-2-yl)(methyl)amino)-2-ethylimidazo[1,2-a]pyridin-6-yl)pyrimidin-2-yl)azetidin-3-yl)-4-hydroxypyrrolidine-2-carboxamide]", "values": [{"measurement": "IC50", "value": "20 to 200", "unit": "nM"}]}, {"compound": "CCc1nc2ccc(-c3cnc(N4CC(NC(=O)[C@@H]5C[C@H](O)CN5)C4)nc3)cn2c1N(C)c1nc(-c2ccc(F)cc2)c(C#N)s1", "note": "[Compound 24, (2S,4S)—N-(1-(5-(3-((5-cyano-4-(4-fluorophenyl)thiazol-2-yl)(methyl)amino)-2-ethylimidazo[1,2-a]pyridin-6-yl)pyrimidin-2-yl)azetidin-3-yl)-4-hydroxy pyrrolidine-2-carboxamide]", "values": [{"measurement": "IC50", "value": "20 to 200", "unit": "nM"}]}, {"compound": "CCc1nc2ccc(-c3cnc(N4CC(NC(=O)[C@H]5C[C@@H](O)CN5)C4)nc3)cn2c1N(C)c1nc(-c2ccc(F)cc2)c(C#N)s1", "note": "[Compound 25, (2R,4R)—N-(1-(5-(3-((5-cyano-4-(4-fluorophenyl)thiazol-2-yl)(methyl)amino)-2-ethylimidazo[1,2-a]pyridin-6-yl)pyrimidin-2-yl)azetidin-3-yl)-4-hydroxypyrrolidine-2-carboxamide]", "values": [{"measurement": "IC50", "value": "20 to 200", "unit": "nM"}]}, {"compound": "CCc1nc2ccc(-c3cnc(N4CC(NC(=O)[C@@H]5C[C@@H](O)CN5)C4)nc3)cn2c1N(C)c1nc(-c2ccc(F)cc2)c(C#N)s1", "note": "[Compound 26, (2S,4R)—N-(1-(5-(3-((5-cyano-4-(4-fluorophenyl)thiazol-2-yl)(methyl)amino)-2-ethylimidazo[1,2-a]pyridin-6-yl)pyrimidin-2-yl)azetidin-3-yl)-4-hydroxypyrrolidine-2-carboxamide]", "values": [{"measurement": "IC50", "value": "20 to 200", "unit": "nM"}]}, {"compound": "CCc1nc2ccc(-c3cnc(N4CC(NC5CNC5)C4)nc3)cn2c1N(C)c1nc(-c2ccc(F)cc2)c(C#N)s1", "note": "[Compound 27, 2-((6-(2-(3-(azetidin-3-ylamino)azetidin-1-yl)pyrimidin-5-yl)-2-ethylimidazo[1,2-a]pyridin-3-yl)(methyl)amino)-4-(4-fluorophenyl)thiazole-5-carbonitrile]", "values": [{"measurement": "IC50", "value": "20 to 200", "unit": "nM"}]}, {"compound": "CCc1nc2ccc(-c3cnc(N4CC(NC5(C#N)CC5)C4)nc3)cn2c1N(C)c1nc(-c2ccc(F)cc2)c(C#N)s1", "note": "[Compound 28, 2-((6-(2-(3-((1-cyanocyclopropyl)amino)azetidin-1-yl)pyrimidin-5-yl)-2-ethylimidazo[1,2-a]pyridin-3-yl)(methyl)amino)-4-(4-fluorophenyl)thiazole-5-carbonitrile]", "values": [{"measurement": "IC50", "value": "20 to 200", "unit": "nM"}]}, {"compound": "CCc1nc2ccc(-c3cnc(N4CC(NC(=O)C5(C#N)CC5)C4)nc3)cn2c1N(C)c1nc(-c2ccc(F)cc2)c(C#N)s1", "note": "[Compound 29, 1-cyano-N-(1-(5-(3-((5-cyano-4-(4-fluorophenyl)thiazol-2-yl)(methyl)amino)-2-ethylimidazo[1,2-a]pyridin-6-yl)pyrimidin-2-yl)azetidin-3-yl)cyclopropane-1-carboxamide]", "values": [{"measurement": "IC50", "value": "20 to 200", "unit": "nM"}]}, {"compound": "CCc1nc2ccc(-c3cnc(N4CC(NC(=O)C5(O)CC5)C4)nc3)cn2c1N(C)c1nc(-c2ccc(F)cc2)c(C#N)s1", "note": "[Compound 31, N-(1-(5-(3-((5-cyano-4-(4-fluorophenyl)thiazol-2-yl)(methyl)amino)-2-ethylimidazo[1,2-a]pyridin-6-yl)pyrimidin-2-yl)azetidin-3-yl)-1-hydroxycyclopropane-1-carboxamide]", "values": [{"measurement": "IC50", "value": "20 to 200", "unit": "nM"}]}, {"compound": "CCc1nc2ccc(-c3cnc(N4CC(C(=O)NC5(C#N)CC5)C4)nc3)cn2c1N(C)c1nc(-c2ccc(F)cc2)c(C#N)s1", "note": "[Compound 32, 1-(5-(3-((5-cyano-4-(4-fluorophenyl)thiazol-2-yl)(methyl)amino)-2-ethylimidazo[1,2-a]pyridin-6-yl)pyrimidin-2-yl)-N-(1-cyanocyclopropyl)azetidine-3-carboxamide]", "values": [{"measurement": "IC50", "value": "≤ 20", "unit": "nM"}]}, {"compound": "CCc1nc2ccc(-c3cnc(N4CC(C(=O)NC5(CO)CC5)C4)nc3)cn2c1N(C)c1nc(-c2ccc(F)cc2)c(C#N)s1", "note": "[Compound 33, 1-(5-(3-((5-cyano-4-(4-fluorophenyl)thiazol-2-yl)(methyl)amino)-2-ethylimidazo[1,2-a]pyridin-6-yl)pyrimidin-2-yl)-N-(1-(hydroxylmethyl)cyclopropyl)azetidine-3-carboxamide]", "values": [{"measurement": "IC50", "value": "≤ 20", "unit": "nM"}]}, {"compound": "CCc1nc2ccc(-c3cnc(NC4CNC4)nc3)cn2c1N(C)c1nc(-c2ccc(F)cc2)c(C#N)s1", "note": "[Compound 34, 2-((6-(2-(azetidin-3-ylamino)pyrimidin-5-yl)-2-ethylimidazo[1,2-a]pyridin-3-yl)(methyl)amino)-4-(4-fluorophenyl)thiazole-5-carbonitrile]", "values": [{"measurement": "IC50", "value": "> 200", "unit": "nM"}]}, {"compound": "CCc1nc2ccc(-c3cnc(NC4CN(C(=O)C5(O)CC5)C4)nc3)cn2c1N(C)c1nc(-c2ccc(F)cc2)c(C#N)s1", "note": "[Compound 35, 2-((2-ethyl-6-(2-((1-(1-hydroxycyclopropane-1-carbonyl)azetidin-3-yl)amino)pyrimidin-5-yl)imidazo[1,2-a]pyridin-3-yl) (methyl)amino)-4-(4-fluorophenyl)thiazole-5-carbonitrile]", "values": [{"measurement": "IC50", "value": "20 to 200", "unit": "nM"}]}, {"compound": "CCc1nc2ccc(-c3cnc(NC4CN(C(=O)C5CNC5)C4)nc3)cn2c1N(C)c1nc(-c2ccc(F)cc2)c(C#N)s1", "note": "[Compound 36, 2-((6-(2-((1-(azetidine-3-carbonyl)azetidin-3-yl)amino)pyrimidin-5-yl)-2-ethylimidazo[1,2-a]pyridin-3-yl)(methyl)amino)-4-(4-fluorophenyl) thiazole-5-carbonitrile]", "values": [{"measurement": "IC50", "value": "20 to 200", "unit": "nM"}]}, {"compound": "CCc1nc2ccc(-c3cnc(NC4CN(C(=O)N5CC(O)C5)C4)nc3)cn2c1N(C)c1nc(-c2ccc(F)cc2)c(C#N)s1", "note": "[Compound 37, 2-((2-ethyl-6-(2-((1-(3-hydroxyazetidine-1-carbonyl)azetidin-3-yl)amino)pyrimidin-5-yl)imidazo[1,2-a]pyridin-3-yl)(methyl)amino)-4-(4-fluorophenyl)thiazole-5-carbonitrile]", "values": [{"measurement": "IC50", "value": "20 to 200", "unit": "nM"}]}, {"compound": "CCc1nc2ccc(-c3cnc(NCC4CN(C(=O)N5CC(O)C5)C4)nc3)cn2c1N(C)c1nc(-c2ccc(F)cc2)c(C#N)s1", "note": "[Compound 39, 2-((2-ethyl-6-(2-(((1-(3-hydroxyazetidine-1-carbonyl)azetidin-3-yl)methyl)amino)pyrimidin-5-yl)imidazo[1,2-a]pyridin-3-yl)(methyl)amino)-4-(4-fluorophenyl)thiazole-5-carbonitrile]", "values": [{"measurement": "IC50", "value": "20 to 200", "unit": "nM"}]}]}
